Measured values reported in US20140024638A1, “TREATMENT OF COGNITIVE DYSFUNCTION IN SCHIZOPHRENIA” (TARGACEPT, INC., priority 2011, published 2014).
“Also recorded” adds a separate entry of the source.

Tests used:
Format in all cases: in vivo, human
[1] = test system: patients with schizophrenia; experiment: Scale for Assessment of Negative Symptoms (SANS), Phase 2 trial; details: for SANS TOTAL SCORE: Adjusted Mean / SANS TOTAL SCORE: Mean Difference ± SE between TC-5619 and Placebo (Placebo-TC5619): All Patients; for SANS: Mean (SE): tobacco users; for SANS: Mean (SEM): total population
Procedure: (§1) The double blind, placebo controlled Phase 2 trial was conducted at 7 sites in the United States and 12 sites in India. […] Of the randomized patients, approximately 69% were male and approximately 46% were users of tobacco products. […] The primary efficacy outcome measure was GMLT, and the trial included a number of other scales as secondary efficacy outcome measures.

[2] = test system: patients with schizophrenia; experiment: Phase 2 trial, safety and tolerability
Procedure: as §1

[3] = test system: patients with schizophrenia; experiment: Clinical Global Impression - Severity (CGI-S), Phase 2 trial; details: for CGI-SEVERITY: Adjusted Mean / CGI-SEVERITY: Mean Difference ± SE between TC-5619 and Placebo (Placebo-TC5619): All Patients; for CGI-S: Mean (SE): tobacco users; for CGI-S: Mean (SEM): total population
Procedure: as §1

[4] = test system: patients with schizophrenia; experiment: CogState Social-Emotional Cognition task, Phase 2 trial; details: for CogState Social-Emotional Cognition: Mean (SE): tobacco users meeting data integrity criteria; for CogState Social-Emotional Cognition: Mean (SEM): total population, subjects meeting data integrity criteria
Procedure: as §1

[5] = test system: patients with schizophrenia; experiment: Groton Maze Learning Task (GMLT) of the CogState Schizophrenia Battery, Phase 2 trial; details: for GML (Total Error) LOG: Adjusted Mean / GML (Total Error) LOG: Mean Difference ± SE between TC-5619 and Placebo (Placebo-TC5619): All Patients; for GMLT primary efficacy outcome measure: result against protocol criteria: positive outcome = superiority over placebo, one-sided p-value <0.10 after adjusting for 3 comparisons (Weeks 4, 8, 12), adjusted p-value=0.054, unadjusted p 0.018 at 4 weeks, 0.041 at 12 weeks; for GMLT log (10) transformed: Mean (SE): tobacco users
Procedure: as §1
The GMLT is a computerized test designed to assess executive function (the ability to organize cognitive processes, including the ability to plan, prioritize, stop and start activities, shift from one activity to another activity and to monitor one's own behavior). Impaired executive function is thought to be an important aspect of cognitive dysfunction in schizophrenia.

In the case of `O=C(N[C@@H]1C2CCN(CC2)[C@H]1Cc1cccnc1)c1cc2ccccc2o1` (single isomer, unassigned) [TC-5619], the “SANS TOTAL SCORE: Adjusted Mean” value ([1]; Week 8, 5 mg daily, SE 1.25, placebo −5.55) is reported as −7.25, the “SANS TOTAL SCORE: Mean Difference ± SE between TC-5619 and Placebo (Placebo-TC5619)” value ([1]; Week 8, 5 mg daily, one-sided 90% CI (−0.14, ∞), one-sided P 0.1184) is reported as 1.71 ± 1.44 and the “SANS TOTAL SCORE: Adjusted Mean” value ([1]; Week 12, 25 mg daily, SE 1.40, placebo −6.23) is reported as −9.93. The “SANS TOTAL SCORE: Mean Difference ± SE between TC-5619 and Placebo (Placebo-TC5619)” value ([1]; Week 12, 25 mg daily, one-sided 90% CI (1.53, ∞), one-sided P 0.0147) was 3.70 ± 1.68, the “SANS, result in words” value ([1]; secondary outcome measure, investigator assessment of negative symptoms) was “encouraging efficacy signals” and the “SANS: Mean (SE)” value ([1]; Week 4, 1 mg daily, 1-tailed p = 0.098) was 2.74 (2.10); p = 0.098. For the same molecule, the “SANS: Mean (SE)” value ([1]; Week 8, 5 mg daily, 1-tailed p = 0.054) was 4.00 (2.45); p = 0.054, the “SANS: Mean (SE)” value ([1]; Week 12, 25 mg daily, 1-tailed p = 0.033) was 4.86 (2.58); p = 0.033 and the “SANS: Mean (SEM)” value ([1]; Week 4, 1 mg daily, 1-tailed p = 0.255) was 0.78 (1.18); p = 0.255. For the same molecule, the “SANS: Mean (SEM)” value ([1]; Week 8, 5 mg daily, 1-tailed p = 0.118) was 1.71 (1.44); p = 0.118, the “SANS: Mean (SEM)” value ([1]; Week 12, 25 mg daily, 1-tailed p = 0.015) was 3.70 (1.68); p = 0.015 and the “discontinuations due to adverse events, difference to placebo dose group” value ([2]; Phase 2 trial) was “no clinically significant difference”. The tolerability ([2]; Phase 2 trial, 12 weeks, 1/5/25 mg daily, listed as (2S,3R)—N-(2-((3-pyridinyl)methyl)-1-azabicyclo[2.2.2]oct-3-yl)benzofuran-2-carb) was “well tolerated; also recorded: favorable tolerability profile”, the “serious adverse events in the dose group” value ([2]; one also in placebo dose group, considered by the investigator as not drug related) was “one” and the “nausea (most frequent adverse event more common than in placebo cohort)” value ([2]; placebo 0%, mild to moderate in severity, never led to patient dropout) was 5%. The “CGI-SEVERITY: Adjusted Mean” value ([3]; Week 1, 1 mg daily, SE 0.03, placebo −0.05) was −0.03, the “CGI-SEVERITY: Mean Difference ± SE between TC-5619 and Placebo (Placebo-TC5619)” value ([3]; Week 1, 1 mg daily, one-sided 90% CI (−0.07, ∞), one-sided P 0.7588) was −0.02 ± 0.03 and the “CGI-SEVERITY: Adjusted Mean” value ([3]; Week 4, 1 mg daily, SE 0.05, placebo −0.09) was −0.06. The “CGI-SEVERITY: Mean Difference ± SE between TC-5619 and Placebo (Placebo-TC5619)” value ([3]; Week 4, 1 mg daily, one-sided 90% CI (−0.10, ∞), one-sided P 0.6737) was −0.02 ± 0.06, the “CGI-SEVERITY: Adjusted Mean” value ([3]; Week 8, 5 mg daily, SE 0.05, placebo −0.24) was −0.23 and the “CGI-SEVERITY: Mean Difference ± SE between TC-5619 and Placebo (Placebo-TC5619)” value ([3]; Week 8, 5 mg daily, one-sided 90% CI (−0.09, ∞), one-sided P 0.5440) was −0.01 ± 0.06. The “CGI-SEVERITY: Adjusted Mean” value ([3]; Week 12, 25 mg daily, SE 0.07, placebo −0.29) was −0.31, the “CGI-SEVERITY: Mean Difference ± SE between TC-5619 and Placebo (Placebo-TC5619)” value ([3]; Week 12, 25 mg daily, one-sided 90% CI (−0.11, ∞), one-sided P 0.4495) was 0.01 ± 0.09 and the “Clinical Global Impression - Severity, result in words” value ([3]; secondary outcome measure) was “did not demonstrate a drug effect”. The “CGI-S: Mean (SE)” value ([3]; Week 4, 1 mg daily, 1-tailed p = 0.434) was 0.02 (0.09); p = 0.434, the “CGI-S: Mean (SE)” value ([3]; Week 8, 5 mg daily, 1-tailed p = 0.224) was 0.08 (0.10); p = 0.224 and the “CGI-S: Mean (SE)” value ([3]; Week 12, 25 mg daily, 1-tailed p = 0.308) was 0.07 (0.14); p = 0.308. The “CGI-S: Mean (SEM)” value ([3]; Week 4, 1 mg daily, 1-tailed p = 0.674) was −0.02 (0.06); p = 0.674, the “CGI-S: Mean (SEM)” value ([3]; Week 8, 5 mg daily, 1-tailed p = 0.544) was −0.01 (0.06); p = 0.544 and the “CGI-S: Mean (SEM)” value ([3]; Week 12, 25 mg daily, 1-tailed p = 0.450) was 0.01 (0.09); p = 0.450. For the same molecule, the “CogState Social-Emotional Cognition: Mean (SE)” value ([4]; Week 4, 1 mg daily, 1-tailed p = 0.632) was −0.010 (0.028); p = 0.632, the “CogState Social-Emotional Cognition: Mean (SE)” value ([4]; Week 8, 5 mg daily, 1-tailed p = 0.625) was −0.009 (0.029); p = 0.625 and the “CogState Social-Emotional Cognition: Mean (SE)” value ([4]; Week 12, 25 mg daily, 1-tailed p = 0.752) was −0.019 (0.027); p = 0.752. The “CogState Social-Emotional Cognition: Mean (SEM)” value ([4]; Week 4, 1 mg daily, 1-tailed p = 0.259) was 0.013 (0.020); p = 0.259, the “CogState Social-Emotional Cognition: Mean (SEM)” value ([4]; Week 8, 5 mg daily, 1-tailed p = 0.217) was 0.015 (0.020); p = 0.217 and the “CogState Social-Emotional Cognition: Mean (SEM)” value ([4]; Week 12, 25 mg daily, 1-tailed p = 0.546) was −0.002 (0.020); p = 0.546. For the same molecule, the “GML (Total Error) LOG: Adjusted Mean” value ([5]; Week 1, 1 mg daily, SE 0.01, placebo −0.02) was −0.01, the “GML (Total Error) LOG: Mean Difference ± SE between TC-5619 and Placebo (Placebo-TC5619)” value ([5]; Week 1, 1 mg daily, one-sided 90% CI (−0.03, ∞), one-sided P 0.6709) was −0.01 ± 0.02 and the “GML (Total Error) LOG: Adjusted Mean” value ([5]; Week 4, 1 mg daily, SE 0.02, placebo 0.02) was −0.03. For the same molecule, the “GML (Total Error) LOG: Mean Difference ± SE between TC-5619 and Placebo (Placebo-TC5619)” value ([5]; Week 4, 1 mg daily, one-sided 90% CI (0.02, ∞), one-sided P 0.0180) was 0.05 ± 0.02, the “GML (Total Error) LOG: Adjusted Mean” value ([5]; Week 8, 5 mg daily, SE 0.02, placebo −0.02) was −0.05 and the “GML (Total Error) LOG: Mean Difference ± SE between TC-5619 and Placebo (Placebo-TC5619)” value ([5]; Week 8, 5 mg daily, one-sided 90% CI (−0.00, ∞), one-sided P 0.1308) was 0.02 ± 0.02. For the same molecule, the “GML (Total Error) LOG: Adjusted Mean” value ([5]; Week 12, 25 mg daily, SE 0.02, placebo −0.02) was −0.06, the “GML (Total Error) LOG: Mean Difference ± SE between TC-5619 and Placebo (Placebo-TC5619)” value ([5]; Week 12, 25 mg daily, one-sided 90% CI (0.01, ∞), one-sided P 0.0405) was 0.04 ± 0.02 and the “GMLT activity in non-users of tobacco” value ([5]; non-users) was “no activity”. The “GMLT primary efficacy outcome measure: result against protocol criteria” value [5] was “met the pre-defined success criteria”, the “GMLT primary efficacy outcome measure: result against protocol criteria” value ([5]; listed as (2S,3R)—N-(2-((3-pyridinyl)methyl)-1-azabicyclo[2.2.2]oct-3-yl)benzofuran-2-carb) was “met the protocol criteria for a positive result” and the “GMLT results, patients at study sites in United States as compared to study sites in India” value ([5]; subgroup comparison) was “favorable”. The “GMLT results, tobacco users as compared to non-users” value ([5]; subgroup comparison) was “favorable for tobacco users as compared to non-users”, the “GMLT log (10) transformed: Mean (SE)” value ([5]; Week 4, 1 mg daily, 1-tailed p = 0.014) was 0.06 (.03) p = 0.014 and the “GMLT log (10) transformed: Mean (SE)” value ([5]; Week 8, 5 mg daily, 1-tailed p = 0.086) was 0.04 (0.03) p = 0.086. The “GMLT log (10) transformed: Mean (SE)” value ([5]; Week 12, 25 mg daily, 1-tailed p = 0.002) was 0.07 (0.02) p = 0.002, the “GMLT log (10) transformed: Mean (SEM)” value ([5]; total population (tobacco users and non-users), Week 4, 1 mg daily, 1-tailed p = 0.018) was 0.05 (0.02); p = 0.018 and the “GMLT log (10) transformed: Mean (SEM)” value ([5]; total population, Week 8, 5 mg daily, 1-tailed p = 0.131) was 0.02 (0.02); p = 0.131. For the same molecule, the “GMLT log (10) transformed: Mean (SEM)” value ([5]; total population, Week 12, 25 mg daily, 1-tailed p = 0.041) was 0.04 (0.02); p = 0.041.
